Measurements from publication PMC12117711, “The contribution of cyclic imide stereoisomers on cereblon-dependent activity†” (Chemical Science, 2025).
Values joined by “and” are separate entries in the source; they are usually repeats but may differ in a detail not shown here. Equal entries are not always repeated. Where two headings read alike, the source gives them in different places. Values belong to the molecule of their own block, whether it stands above or below them. Non-standard residues stand in square brackets, D forms with d. Residues, ends and D or L forms follow the SMILES beside them. No end group written: not given here. *: point of attachment. epicN = C-terminal cyclic asparagine (aspartimide), (R)-epimer, epimer of cN, O=C1C[C@@H](N*)C(=O)N1; Aspartimide = O=C1C[C@H](N*)C(=O)N1; Fmoc = O=C(OCC1c2ccccc2-c2ccccc21)*; X3 = O=C1CC[C@@H](N*)C(=O)N1; X1 = O=C1C[C@@H](N*)C(=O)N1; X2 = O=C1CC[C@H](N*)C(=O)N1

Experiments:
[1] = Time-course study of racemization of lenalidomide, photo-lenalidomide and deuterated analogs in RPMI medium; type: physicochemical; conditions: RPMI media, 37 °C, read-out: t50%ee (racemization half-life) (converted)
Description: Time-course Study of Racemization of Lenalidomide and Photo-lenalidomide in RPMI Medium To a 12-well plate, 25 μL of the indicated compound (4 mM stock solution in methanol) was added and methanol was air-dried. 1 mL of RPMI medium was added to each well containing the compound and the plate was incubated at 37 °C, 5% CO2. At the indicated time point, RPMI medium containing the compound was collected in a 5-mL Eppendorf tube, and 4 mL of HPLC-grade ethyl acetate was added to each tube. The tube was shaken for 2 min to extract the compounds into ethyl acetate. After two layers were separated, 3 mL was taken from the organic layer and filtered through sodium sulfate to remove residual water. To the same 5-mL Eppendorf tube, 3 mL of HPLC-grade ethyl acetate was added to repeat the extraction step.
The taken organic layers were combined and concentrated in vacuo to dryness. The sample was resuspended in HPLC grade isopropanol and analyzed with Waters Prep 150 LC System equipped with a chiral column with conditions indicated in the synthetic procedure.
The experimental data obtained were fitted to the following rate equation for racemization:1 […]
Where Y represents the ratio of the other enantiomer formed via racemization with constraints 2 of Top = 1 (100% conversion) and Bottom = 0 (0% conversion), Krac is the rate constant for the racemization, and t is incubation time. For the sake of symmetry, rate constants are the […]
In the analysis of the above curve fitting model, parameter estimation for Krac was carried out using nonlinear least squares regression, employing the “curve_fit” function from the SciPy library in Python. This approach yielded an estimated value for Krac. To ascertain the precision of this estimation and to quantify the associated uncertainty, the standard error of Krac was calculated based on the diagonal elements of the covariance matrix returned by the curve fitting procedure. Subsequently, to construct a 95% confidence interval for the extrapolated racemization curves, the t-distribution was employed, considering the degrees of freedom (the number of data points minus the number of fitted parameters). The critical t-value for a 95% confidence level was determined by using the “t.ppf” function from the SciPy library in Python, and the confidence interval for Krac was then derived as the following equation: […]
Where tcritical is the critical t-value for a 95% confidence level and SE(Krac) is the standard error […]
The upper and lower bounds of this interval were further utilized to generate the corresponding confidence bounds for the curve, offering a visual representation of the uncertainty inherent in […]

[2] = target: His6-CRBN/DDB1 (Homo sapiens, UniProt Q96SW2); experiment: TR-FRET ligand displacement assay (Thal-FITC tracer) with His6-CRBN/DDB1; conditions: for IC50 / pIC50 (M): Thalidomide-FITC tracer 50 nM
[3] = target: T1, GSPT1-GFP in HEK293T cells (Homo sapiens, UniProt P15170+Q96SW2); experiment: Degradation assay by flow cytometry, GSPT1-GFP; type: cell-based
T1 construct: expressed in transfected cells
Source text: μg/mL), and 10% (v/v) FBS. […]
Degradation assay by flow cytometry
resuspension in DMEM +/– without phenol red. For IKZF1 degradation assay, propidium
equipped with a high throughput sampler.
using the BD FACSDiva software v9.1. For each experimental condition, the arithmetic mean
comparing compound treatment to DMSO control. […]
The same analysis was also applied to the (S)-
dependent activity, we adjusted the dose-response curves accordingly. Because dose-
within the error margins of the original curve.
squares F-test. This analysis determined whether there was a statistically significant
derived (S)-enantiomer. […]

[4] = target: His6-CRBN/DDB1 complex (UniProt Q96SW2)
[5] = target: T2, His6-CRBN/DDB1 complex (UniProt Q96SW2 1-442; Q16531 1-1140); experiment: AlphaScreen or HTRF; competitive TR-FRET ligand displacement; peptide titrated against recombinant His6-CRBN/DDB1 (2.5 nM) with the tracer Thalidomide-FITC (50 nM); KD from IC50 by the correction factor 1.426 (tracer KD 2-site 117.3 nM); conditions: both partners purified
T2 construct: cereblon (CRBN), E3 ligase substrate adapter; DDB1, in complex with His6-CRBN; Column 'Protein' of S0003 says only 'CRBN'; the text and legends name His6-CRBN/DDB1 for this TR-FRET assay; also called cereblon; source: recombinant

[6] = KD, competitive TR-FRET, His6-CRBN/DDB1
[7] = HEK293T, 3 h, flow cytometry, read-out: DC50
[8] = IC50 (M), Protein CRBN, protein […]
[9] = KD (M), Protein CRBN, from IC50 with Correction Factor 1.43
[10] = KD (nM), Protein CRBN, from IC50 with Correction Factor 1.43
[11] = Protein CRBN, from IC50 with Correction Factor 1.43
[12] = IC50 (nM), Protein CRBN, protein […]

Molecule: Nc1cccc2c1CN([C@H]1CCC(=O)NC1=O)C2=O [(S)-lenalidomide]
half-life at 100 µM [1]: 4.2 h

Molecule: [2H]C1([2H])C[C@]([2H])(N2Cc3cc(CNC(=O)Nc4ccc(C)c(Cl)c4)ccc3C2=O)C(=O)NC1=O [(S)-CC885-d3]
Kd [2, 6]: ≤ 3e-09 M
Kd ([2]; predicted KD of the (S)-stereoisomer, ligand displacement assay adjusted for (S)-stereoisomer, (S)-stereoisomer in the (S)-sample, corrected for racemization): 3.2e-09 ± 1e-10 M
DC50 ([3]; (S) in the (S)-sample, read-out: predicted DC50 of the (S)-stereoisomer, adjusted for (S)-stereoisomer): 1.2 ± 0.3 nM
DC50 [3, 7]: ≤ 2 nM

Molecule: O=C(CNC(=O)CNC(=O)OCC1c2ccccc2-c2ccccc21)NCC(=O)N[C@@H](Cc1ccccc1)C(=O)N[C@@H]1CCC(=O)NC1=O [Fmoc-GGGFepicQ] (Fmoc-GGGF-X3)
IC50 [2, 8]: 7.69e-07 M
Kd [2, 9]: 5.39e-07 M

Molecule: GFP-FcN
in vitro monoubiquitination with K0-ubiquitin mediated by the CRL4^CRBN complex, fold over methylated GFP-FcQ (GFP-FcQMe) [4]: 7.1 fold

Molecule: O=C(CNC(=O)CNC(=O)OCC1c2ccccc2-c2ccccc21)NCC(=O)N[C@@H](Cc1ccccc1)C(=O)N[C@H]1CC(=O)NC1=O [Fmoc-GGGFcN] (Fmoc-GGGF-Aspartimide)
Kd [2, 9]: 3.67e-08 M

Molecule: Nc1cccc2c1CN([C@@H]1CCC(=O)NC1=O)C2=O [(R)-lenalidomide]
half-life at 100 µM [1]: 4.3 h

Molecule: O=C(CNC(=O)CNC(=O)OCC1c2ccccc2-c2ccccc21)NCC(=O)N[C@@H](Cc1ccccc1)C(=O)N[C@@H]1CC(=O)NC1=O [Fmoc-GGGFepicN] (Fmoc-GGGF-X1)
IC50 [2, 12]: 4.08e-06 M
Kd [2, 9]: 2.86e-06 M
Kd [2, 6]: 2.86e-06 M and 2.87e-06 M
IC50 ([2]; pIC50 (M), Protein CRBN): 4.07e-06 M
Kd ([2]; pKD (M), Protein CRBN, from IC50 with Correction Factor 1.43): 2.88e-06 M

Molecule: GFP-FcQ
in vitro monoubiquitination with K0-ubiquitin mediated by the CRL4^CRBN complex, fold over methylated GFP-FcQ (GFP-FcQMe) [4]: 4.8 fold

Molecule: [2H]C1([2H])C[C@@]([2H])(N2Cc3cc(CNC(=O)Nc4ccc(C)c(Cl)c4)ccc3C2=O)C(=O)NC1=O [(R)-CC885-d3]
Kd [2, 6]: 4.01e-07 M
DC50 [3, 7]: 25 nM

Molecule: O=C(CNC(=O)CNC(=O)OCC1c2ccccc2-c2ccccc21)NCC(=O)N[C@@H](Cc1ccccc1)C(=O)N[C@H]1CCC(=O)NC1=O [Fmoc-GGGFcQ] (Fmoc-GGGF-X2)
IC50 [2, 8]: 1.28e-07 M
Kd [2, 9]: 8.94e-08 M

B1: Fmoc-GGGFcN (peptide)
peptide: Fmoc-GGGF[Aspartimide]
SMILES: O=C(CNC(=O)CNC(=O)OCC1c2ccccc2-c2ccccc21)NCC(=O)N[C@@H](Cc1ccccc1)C(=O)N[C@H]1CC(=O)NC1=O
notes: pentapeptide; the C-terminal N is cyclised to the C-terminal cyclic imide (aspartimide); source: synthetic peptide
IC50 [5]: 52.4 nM

The remaining lines, values ahead:

IC50 [2, 8]: 3.44e-07 M
Kd [2, 9]: 2.42e-07 M
Kd [2, 10]: 2.42e-07 M
Molecule: C[C@H](NC(=O)CNC(=O)CNC(=O)CN)C(=O)N[C@H]1CC(=O)NC1=O [GGGAcN] (H-GGGA-Aspartimide)

half-life at 100 µM [1]: 24 to 25 h
Molecule: [2H]C1([2H])CC([2H])(N2Cc3c(N)cccc3C2=O)C(=O)NC1=O (racemic) [rac-Len-d3]

pIC50 (M) ([2]; Protein CRBN): 6.86 M
IC50 ([2]; Protein CRBN, protein […]): 1.38e-07 M
Kd [2, 11]: 9.65e-08 M and 9.7e-08 M
pKD (M) [2, 11]: 7.02 M
Molecule: Cc1sc2c(c1C)C(c1ccc(Cl)cc1)=N[C@@H](CC(=O)NCCCCCCCCC(=O)N[C@@H](Cc1ccccc1)C(=O)N[C@H]1CCC(=O)NC1=O)c1nnc(C)n1-2 [JQ1-FcQ]

in vitro monoubiquitination with K0-ubiquitin mediated by the CRL4^CRBN complex, fold over methylated GFP-FcQ (GFP-FcQMe); did not reach statistical significance [4]: 1.3 fold
Molecule: GFP-FepicN

pIC50 (M) ([2]; Protein CRBN): 8.29 M
Molecule: Cc1ccc(NC(=O)NCc2ccc3c(c2)CN(C2CCC(=O)NC2=O)C3=O)cc1Cl (racemic) [rac-CC-885]

in vitro monoubiquitination with K0-ubiquitin mediated by the CRL4^CRBN complex, fold over methylated GFP-FcQ (GFP-FcQMe) [4]: 2.4 fold
Molecule: GFP-FepicQ

Kd [2, 6]: ≤ 4e-09 M
Molecule: Cc1ccc(NC(=O)NCc2ccc3c(c2)CN(C2CCC(=O)NC2=O)C3=O)cc1Cl (racemic) [rac-CC885, CC885, reference compound]

Kd [2, 6]: ≤ 4e-09 M
DC50 [3, 7]: ≤ 2 nM
Molecule: [2H]C1([2H])CC([2H])(N2Cc3cc(CNC(=O)Nc4ccc(C)c(Cl)c4)ccc3C2=O)C(=O)NC1=O (racemic) [rac-CC885-d3]

pIC50 (M) ([2]; Protein CRBN): 7.42 M
IC50 ([2]; Protein CRBN, protein […]): 3.8e-08 M
Kd [2, 11]: 2.66e-08 M and 2.7e-08 M
pKD (M) [2, 11]: 7.57 M
Molecule: Cc1sc2c(c1C)C(c1ccc(Cl)cc1)=N[C@@H](CC(=O)NCCCCCCCCC(=O)N[C@@H](Cc1ccccc1)C(=O)N[C@H]1CC(=O)NC1=O)c1nnc(C)n1-2 [JQ1-FcN]

IC50 [2, 8]: 1.12e-05 M
Molecule: C[C@H](NC(=O)CNC(=O)CNC(=O)CN)C(=O)N[C@@H]1CC(=O)NC1=O [GGGAepicN] (H-GGGA-X1)

IC50 [2, 8]: 1.53e-05 M
IC50 [2, 12]: 1.53e-05 M
Kd [2, 9]: 1.07e-05 M
Kd [2, 10]: 1.07e-05 M
Kd [2, 6]: 1.07e-05 M
Molecule: CN1C(=O)CCC(N2Cc3c(N)cccc3C2=O)C1=O (stereo not drawn) [Me-Len, reference compound]

half-life at 100 µM [1]: 4.2 to 4.3 h
Molecule: Nc1cccc2c1CN(C1CCC(=O)NC1=O)C2=O (stereo not drawn) [lenalidomide]

Kd [5]: 7850 nM
B2: GGGAepicN (peptide)
peptide: GGGA[epicN]
notes: pentapeptide; the C-terminal N is cyclised to the aspartimide and is the epimer of that in GGGAcN; The sheet prints no Fmoc for this peptide; also called pentapeptide bearing AepicN; source: synthetic peptide

Kd [5]: 242 nM
B3: GGGAcN (peptide)
peptide: GGGA[Aspartimide]
notes: pentapeptide; the C-terminal N is cyclised to the C-terminal cyclic imide (aspartimide); The sheet prints no Fmoc for this peptide; also called pentapeptide bearing AcN; source: synthetic peptide
